The source of these data is US4393003A, “β-Lactamase inhibitors” (Hoffmann-La Roche Inc., priority 1981, dated 1983).

Like-named read-outs stand apart in the source and are kept apart here.

Experiment [1] concerns the target T1, constitutive broad-spectrum TEM type beta-lactamase mediated by the resistance transfer factor R1 in Escherichia coli 1263B (Escherichia coli, UniProt P62593).
T1 construct: mediated by the resistance transfer factor R1 in Escherichia coli 1263B; endogenous in cells; host or cells: Escherichia coli 1263B carrying resistance transfer factor R1
The experiment is described as follows: Cell-free enzyme assay, inhibition of nitrocefin hydrolysis. The format is biochemical. Conditions: preincubated with enzyme 20 min, 30° C., pH 7; nitrocefin substrate; read-out: I50, Escherichia coli R1. The method, then: (§1) The test compound is preincubated with enzyme for 20 min. at 30° C. and pH 7. Chromogenic cephalosporin substrate, nitrocefin, is added and its initial rate of hydrolysis is recorded spectrophotometrically. Three enzyme preparations were employed:
(b) the constitutive broad-spectrum TEM type beta-lactamase mediated by the resistance transfer factor R1 in Escherichia coli 1263B, and
(§2) Included for comparison purposes were the antibiotics cloxacillin and dicloxacillin. I50 (μM) is calculated as the concentration necessary to inhibit the rate of nitrocefin hydrolysis by 50%.

In experiment [2] the target is T2, type Ia cephalosporinase from Enterobacter cloacae (Enterobacter cloacae, UniProt P05364).
T2 construct: purchased Miles Laboratories
T2 sequence (P05364 21-381): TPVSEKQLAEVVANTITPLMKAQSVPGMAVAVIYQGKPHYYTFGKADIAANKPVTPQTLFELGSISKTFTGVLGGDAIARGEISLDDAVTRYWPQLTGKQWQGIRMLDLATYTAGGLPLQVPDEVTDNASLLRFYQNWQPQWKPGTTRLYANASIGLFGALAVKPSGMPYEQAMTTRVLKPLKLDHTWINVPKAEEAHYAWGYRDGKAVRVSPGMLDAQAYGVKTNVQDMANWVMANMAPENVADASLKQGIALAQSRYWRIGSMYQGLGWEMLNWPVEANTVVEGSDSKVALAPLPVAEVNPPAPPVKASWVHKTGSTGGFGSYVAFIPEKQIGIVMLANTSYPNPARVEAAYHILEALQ
The description is as above. In kind it is biochemical. How it is done: as §1
(c) the type Ia cephalosporinase from Enterobacter cloacae purchased from Miles Laboratories.
as §2

The target in experiment [3] is T3, inducible penicillinase from Staphylococcus aureus 1059B (Staphylococcus aureus, UniProt P00807).
T3 construct: the inducible penicillinase from Staphylococcus aureus 1059B; endogenous in cells; host or cells: Staphylococcus aureus 1059B
T3 sequence (P00807 25-281): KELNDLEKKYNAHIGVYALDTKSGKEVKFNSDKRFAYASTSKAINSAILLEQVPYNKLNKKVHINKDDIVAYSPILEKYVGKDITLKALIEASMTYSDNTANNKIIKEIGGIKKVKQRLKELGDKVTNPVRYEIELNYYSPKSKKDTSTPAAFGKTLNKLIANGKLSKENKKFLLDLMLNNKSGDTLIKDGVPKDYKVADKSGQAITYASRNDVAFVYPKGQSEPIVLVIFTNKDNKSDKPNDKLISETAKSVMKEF
The experiment is described as above. In kind it is biochemical. The method, then:
as §1
(a) the inducible penicillinase from Staphylococcus aureus 1059B,
as §2

In the next experiment the test system is E. Coli K12R1. The experiment is described as follows: In vitro MIC by agar dilution, alone and mecillinam potentiation. In kind it is cell-based. As to conditions: single agent, Mueller-Hinton agar, overnight 37° C. The method, then: (§3) The efficacy of putative β-lactamase inhibitors is assessed by determining the effect of the test compounds on the minimal inhibitory concentrations (MICs) of β-lactamase-sensitive antibiotics against bacterial strains known to produce β-lactamases.
(§4) The antibacterial activity of the β-lactamase inhibitor against the test strains is determined by a standard agar dilution method. Serial two-fold dilutions of the β-lactamase inhibitor are prepared in water to give concentrations 10 times the final desired concentrations. The aqueous dilutions are then further diluted 1:10 in Mueller-Hinton (MH) agar. These agar mixtures are poured into petri plates and allowed to harden. Each plate, including a drug-free control plate, is inoculated by means of a Steers replicator with 0.05 mL of 10^-4 dilutions of the test organisms. The 10^'4 dilutions of the organisms are prepared in MH broth from overnight TS broth cultures. The plates are examined for growth after overnight incubation at 37° C. The lowest drug concentration at which three or fewer colonies are observed is considered to be the MIC.
(§5) The β-lactamase inhibitor is then tested for potentiation of the antibiotic mecillinam. Aqueous solutions are prepared containing serial two-fold dilutions of mecillinam in the presence of the β-lactamase inhibitor at a constant concentration 2-4 fold less than its MIC for the most sensitive of the test organisms. The same procedure as above is then followed. Controls include a drug-free plate and a plate containing the β-lactamase inhibitor at the concentration used in the test. The MIC of mecillinam as a single agent is also determined at the same time.
In general terms: In agar dilution, organisms are placed on agar that contains the substance at set levels.

For the next experiment, the system named is S. Marcescens S5. The experiment is described as above. In kind it is cell-based. Conditions: single agent, Mueller-Hinton agar, overnight 37° C. The method, then:
as §3, §4, §5

The next experiment has as its system E. Coli 7289. The description is as above. As to conditions: single agent, Mueller-Hinton agar, overnight 37° C. In kind it is cell-based. The method, then:
as §3, §4, §5

In the next experiment the test system is P. Aeruginosa 5700. The description is as above. The format is cell-based. How it is done:
as §3, §4, §5

The next experiment concerns E. Cloacae P99. Described as above. In kind it is cell-based. How it is done: as §3, §4, §5
In the next experiment the test system is E. Coli ST 323. The experiment is described as above. The format is cell-based. As to conditions: single agent, Mueller-Hinton agar, overnight 37° C. How it is done: as §3, §4, §5
Setting [4] is: preincubated with enzyme 20 min, 30° C., pH 7, nitrocefin substrate, read-out: I50, Enterobacter cloacae.
The mark [5] stands for this setting: preincubated with enzyme 20 min, 30° C., pH 7, nitrocefin substrate, read-out: I50, Staphylococcus aureus.
Setting [6] is: Escherichia coli, read-out: MIC.

T1 sequence (P62593 24-286 limits assumed): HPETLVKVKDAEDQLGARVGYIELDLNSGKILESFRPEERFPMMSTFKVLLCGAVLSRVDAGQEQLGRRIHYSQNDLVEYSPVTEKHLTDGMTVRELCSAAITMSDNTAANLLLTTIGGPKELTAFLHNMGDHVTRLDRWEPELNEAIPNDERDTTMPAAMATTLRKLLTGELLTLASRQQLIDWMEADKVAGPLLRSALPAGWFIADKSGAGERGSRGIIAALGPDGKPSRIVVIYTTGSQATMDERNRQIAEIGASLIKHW

Take `Cc1onc(-c2ccccc2Cl)c1C(=O)N[C@@H]1C(=O)N2[C@@H]1SC(C)(C)[C@@H]2C(=O)O` [Cloxacillin]: the results for the IC50 in [1], in experiment [2] (setting [4]) and in experiment [3] (setting [5]) were 68 µM, 0.0015 µM and 365 µM, respectively.
Consider `Cc1onc(-c2c(Cl)cccc2Cl)c1C(=O)N[C@@H]1C(=O)N2[C@@H]1SC(C)(C)[C@@H]2C(=O)O` [Dicloxacillin], for which the IC50 in experiment [1] was determined as 32 µM; in experiment [2] (setting [4]), 0.0014 µM; in [3] (setting [5]), 96 µM.
A word on the MIC: it is the lowest concentration that inhibits growth of the organism. As to `CC1(C)S[C@@H]2[C@H](/N=C/N3CCCCCC3)C(=O)N2[C@H]1C(=O)O` [Mecillinam, mecillinam], the MIC in the experiment with E. Coli K12R1 (setting [6]) was 1 µg/mL; in the experiment on S. Marcescens S5 (Serratia marcescens, read-out: MIC) it was 4 µg/mL; with E. Coli 7289 (setting [6]), 32 µg/mL; in the experiment with P. Aeruginosa 5700 (Pseudomonas aeruginosa), > 128 µg/mL; in the experiment on E. Cloacae P99 (Enterobacter cloacae) it was 0.03 µg/mL; in the experiment with E. Coli ST 323 (setting [6]) it was 4 µg/mL.
Take `C[C@]12C[C@@]1(C(=O)O)N1C(=O)C[C@H]1S2(=O)=O` [compound of formula I, [2S-(2α,4α,6α)]-4-Methyl-8-oxo-5-thia-1-azatricyclo[4.2.0.0^2,4]octane-2-carboxylic acid 5,5-dioxide]: the MIC entry is listed as “Inert” in the experiment on E. Coli K12R1; “Inert” in the experiment on S. Marcescens S5; “Inert” in the experiment with E. Coli 7289; “Inert” in the experiment on P. Aeruginosa 5700 (P. Aeruginosa 5700, single agent, Mueller-Hinton agar, overnight 37° C.); “Inert” in the experiment with E. Cloacae P99 (E. Cloacae P99, single agent, Mueller-Hinton agar, overnight 37° C.); “Inert” in the experiment with E. Coli ST 323. Also, the IC50 in [1] came to 1.1 µM; in [2] it was 69 µM; in experiment [3], 6.7 µM.
